Values after ≈ are worked out from the molar mass of the structure shown.
Columns and labels:
[1] = test system: Bacillus subtilis PCI 219; test: MIC, in vitro antibacterial activity (standard strains); assay type: cell-based; conditions: Bacillus subtilis, PCI219; 10^6 cells/ml; Gram +; read-out: MIC
[2] = test system: Staphylococcus aureus 209 P; test: as above; assay type: cell-based; conditions: Staphylococcus aureus, 209P; 10^6 cells/ml; Gram +; read-out: MIC
S. aureus Smith = test: as above; assay type: cell-based, Staphylococcus aureus; conditions: Staphylococcus aureus; 10^6 cells/ml; Gram +; read-out: MIC
[3] = test system: S. aureus IID 670 (Terajima); test: as above; assay type: cell-based, Staphylococcus aureus; conditions: Staphylococcus aureus, IID670; 10^6 cells/ml; Gram +; read-out: MIC
S. pyogenes IID 692 = test: as above; assay type: cell-based, Streptococcus pyogenes; conditions: Streptococcus pyogenes, IID692; 10^6 cells/ml; Gram +; read-out: MIC
S. pneumoniae IID 552 = test: as above; assay type: cell-based; conditions: Streptococcus pneumoniae, IID552; 10^6 cells/ml; Gram +; read-out: MIC
E. faecalis IID 682 = test: as above; assay type: cell-based; conditions: Enterococcus faecalis, IID682; 10^6 cells/ml; Gram +; read-out: MIC
E. coli ATCC 10536 = test: as above; assay type: cell-based, Escherichia coli; conditions: Escherichia coli, ATCC10536; 10^6 cells/ml; Gram -; read-out: MIC
[4] = test system: Proteus vulgaris IFO 3167; test: as above; assay type: cell-based; conditions: Proteus vulgaris, IFO3167; 10^6 cells/ml; Gram -; read-out: MIC
P. mirabilis IID 994 = test: as above; assay type: cell-based; conditions: Proteus mirabilis, IID994; 10^6 cells/ml; Gram -; read-out: MIC
[5] = test system: Morganella morganii IID 602; test: as above; assay type: cell-based; conditions: Morganella morganii, IID602; 10^6 cells/ml; Gram -; read-out: MIC
[6] = test system: Klebsiella pneumoniae KY(GN)6445; test: as above; assay type: cell-based; conditions: Klebsiella pneumoniae; 10^6 cells/ml; Gram -; read-out: MIC
K. pneumoniae 1-220S = test: as above; assay type: cell-based, Klebsiella pneumoniae; conditions: Klebsiella pneumoniae, 1220S; 10^6 cells/ml; Gram -; read-out: MIC
[7] = test system: Serratia marcescens IID 618; test: as above; assay type: cell-based; conditions: Serratia marcescens, IID618; 10^6 cells/ml; Gram -; read-out: MIC
[8] = test system: Salmonella enteritidis IID 604; test: as above; assay type: cell-based; conditions: Salmonella enterica; 10^6 cells/ml; Gram -; read-out: MIC
P. aeruginosa IFO 12689 = test: as above; assay type: cell-based, Pseudomonas aeruginosa; conditions: Pseudomonas aeruginosa, IFO12689; 10^6 cells/ml; Gram -; read-out: MIC
P. aeruginosa IID 1210 = test: as above; assay type: cell-based, Pseudomonas aeruginosa; conditions: Pseudomonas aeruginosa, IID1210; 10^6 cells/ml; Gram -; read-out: MIC
P. cepacia GIFU 518 = test: as above; assay type: cell-based; conditions: Burkholderia cepacia, GIFU518
[9] = test system: Alcaligenes faecalis 0114002; test: as above; assay type: cell-based; conditions: Alcaligenes faecalis, 0114002; 10^6 cells/ml; Gram -; read-out: MIC
[10] = test system: Bacteroides fragilis GM 7000; test: as above; assay type: cell-based; conditions: Bacteroides fragilis, GM7000; 10^6 cells/ml; Gram -; read-out: MIC
B. fragilis 0558 = test: as above; assay type: cell-based, Bacteroides fragilis; conditions: Bacteroides fragilis, 0558; 10^6 cells/ml; Gram -; read-out: MIC
B. distasonis 8503 = test: as above; assay type: cell-based; conditions: Parabacteroides distasonis, 8503; 10^6 cells/ml; Gram -; read-out: MIC
[11] = test system: B. thetaiotaomicron (0661); test: as above; assay type: cell-based; conditions: Bacteroides thetaiotaomicron; 10^6 cells/ml; Gram -; read-out: MIC
B. vulgatus KYA 29327 = test: as above; assay type: cell-based; conditions: Phocaeicola vulgatus, KYA29327; 10^6 cells/ml; Gram -; read-out: MIC
F. necrophorum S-45 = test: as above; assay type: cell-based; conditions: Fusobacterium necrophorum, S45; 10^6 cells/ml; Gram -; read-out: MIC
[12] = test system: Eubacterium lentum GAI 5242; test: as above; assay type: cell-based; conditions: Eggerthella lenta, GAI5242; 10^6 cells/ml; Gram +; read-out: MIC
E. limosum KYA 8486 = test: as above; assay type: cell-based; conditions: Eubacterium limosum, KYA8486; 10^6 cells/ml; Gram +; read-out: MIC
[13] = test system: Clostridium difficile I-E; test: as above; assay type: cell-based; conditions: Clostridioides difficile; 10^6 cells/ml; Gram +
C. perfringens KYA 13123 = test: microbe, parasite or virus in culture; assay type: cell-based; conditions: Clostridium perfringens, KYA13123
C. ramosum = test: MIC, in vitro antibacterial activity (standard strains); assay type: cell-based; conditions: Thomasclavelia ramosa; 10^6 cells/ml; Gram +; read-out: MIC
[14] = test system: Peptostreptococcus anaerobius KYA 27337; test: as above; assay type: cell-based; conditions: Peptostreptococcus anaerobius, KYA27337; 10^6 cells/ml; Gram +; read-out: MIC
Pst. micros UPI 5464-1 = test: as above; assay type: cell-based; conditions: Parvimonas micra, UPI54641; 10^6 cells/ml; Gram +; read-out: MIC
[15] = test system: Veillonella parvula KYA 10790; test: as above; assay type: cell-based; conditions: Veillonella parvula, KYA10790; 10^6 cells/ml; Gram -; read-out: MIC

Q: With `CCn1cc(C(=O)O)c(=O)c2cc(F)c(N3C[C@@H](N)[C@@H](C)C3)c(F)c21` (relative stereo) [Example 22, 7-(cis-3-Amino-4-methyl-1-pyrrolidinyl)-1-ethyl-6,8-difluoro-1,4-dihydro-4-oxo-3-quinolinecarboxylic acid] as the molecule, how does the MIC [1] read?
A: 0.05 µg/mL (≈ 0.142 µM)

Q: And the MIC [2]?
A: 0.1 µg/mL (≈ 0.285 µM)

Q: And the MIC (S. aureus Smith)?
A: 0.2 µg/mL (≈ 0.569 µM)

Q: What about the MIC [3] of the same molecule?
A: 0.2 µg/mL (≈ 0.569 µM)

Q: What about the MIC (S. pyogenes IID 692) of the same molecule?
A: 0.78 µg/mL (≈ 2.22 µM)

Q: What about the MIC (S. pneumoniae IID 552) of the same molecule?
A: 0.78 µg/mL (≈ 2.22 µM)

Q: And the MIC (E. faecalis IID 682)?
A: 0.78 µg/mL (≈ 2.22 µM)

Q: What about the MIC (E. coli ATCC 10536) of the same molecule?
A: 0.05 µg/mL (≈ 0.142 µM)

Q: And the MIC [4]?
A: 0.05 µg/mL (≈ 0.142 µM)

Q: What about the MIC (P. mirabilis IID 994) of the same molecule?
A: 0.1 µg/mL (≈ 0.285 µM)

Q: And the MIC [5]?
A: 0.2 µg/mL (≈ 0.569 µM)

Q: And the MIC [6]?
A: 0.05 µg/mL (≈ 0.142 µM)

Q: And the MIC (K. pneumoniae 1-220S)?
A: 0.1 µg/mL (≈ 0.285 µM)

Q: What about the MIC [7] of the same molecule?
A: 0.1 µg/mL (≈ 0.285 µM)

Q: And the MIC [8]?
A: 0.1 µg/mL (≈ 0.285 µM)

Q: What about the MIC (P. aeruginosa IFO 12689) of the same molecule?
A: 1.56 µg/mL (≈ 4.44 µM)

Q: What about the MIC (P. aeruginosa IID 1210) of the same molecule?
A: 6.25 µg/mL (≈ 17.8 µM)

Q: What about the MIC (P. cepacia GIFU 518) of the same molecule?
A: 0.78 µg/mL (≈ 2.22 µM)

Q: What about the MIC [9] of the same molecule?
A: 1.56 µg/mL (≈ 4.44 µM)

Q: And the MIC [10]?
A: 3.13 µg/mL (≈ 8.91 µM)

Q: And the MIC (B. fragilis 0558)?
A: 1.56 µg/mL (≈ 4.44 µM)

Q: What about the MIC (B. distasonis 8503) of the same molecule?
A: 3.13 µg/mL (≈ 8.91 µM)

Q: What about the MIC [11] of the same molecule?
A: 3.13 µg/mL (≈ 8.91 µM)

Q: And the MIC (B. vulgatus KYA 29327)?
A: 3.13 µg/mL (≈ 8.91 µM)

Q: And the MIC (F. necrophorum S-45)?
A: 3.13 µg/mL (≈ 8.91 µM)

Q: And the MIC [12]?
A: 1.56 µg/mL (≈ 4.44 µM)

Q: What about the MIC (E. limosum KYA 8486) of the same molecule?
A: 6.25 µg/mL (≈ 17.8 µM)

Q: And the MIC [13]?
A: 6.25 µg/mL

Q: What about the MIC (C. perfringens KYA 13123) of the same molecule?
A: 0.78 µg/mL (≈ 2.22 µM)

Q: What about the MIC (C. ramosum) of the same molecule?
A: 6.25 µg/mL (≈ 17.8 µM)

Q: What about the MIC [14] of the same molecule?
A: 3.13 µg/mL (≈ 8.91 µM)

Q: What about the MIC (Pst. micros UPI 5464-1) of the same molecule?
A: 0.78 µg/mL (≈ 2.22 µM)

Q: What about the MIC [15] of the same molecule?
A: 0.78 µg/mL (≈ 2.22 µM)

Q: Which results are given for `CCn1cc(C(=O)O)c(=O)c2cc(F)c(N3C[C@@H](N)[C@@H](C)C3)c(Cl)c21` (relative stereo) [Example 23, 7-(cis-3-Amino-4-methyl-1-pyrrolidinyl)-8-chloro-1-ethyl-6-fluoro-1,4-dihydro-4-oxo-3-quinolinecarboxylic acid]?
A: MIC [1]: 0.05 µg/mL (≈ 0.136 µM); MIC [2]: 0.1 µg/mL (≈ 0.272 µM); MIC (S. aureus Smith): 0.2 µg/mL (≈ 0.544 µM); MIC [3]: 0.2 µg/mL (≈ 0.544 µM); MIC (S. pyogenes IID 692): 0.78 µg/mL (≈ 2.12 µM); MIC (S. pneumoniae IID 552): 0.78 µg/mL (≈ 2.12 µM); MIC (E. faecalis IID 682): 0.78 µg/mL (≈ 2.12 µM); MIC (E. coli ATCC 10536): 0.05 µg/mL (≈ 0.136 µM); MIC [4]: 0.05 µg/mL (≈ 0.136 µM); MIC (P. mirabilis IID 994): 0.05 µg/mL (≈ 0.136 µM); MIC [5]: 0.1 µg/mL (≈ 0.272 µM); MIC [6]: 0.05 µg/mL (≈ 0.136 µM); MIC (K. pneumoniae 1-220S): 0.1 µg/mL (≈ 0.272 µM); MIC [7]: 0.05 µg/mL (≈ 0.136 µM); MIC [8]: 0.1 µg/mL (≈ 0.272 µM); MIC (P. aeruginosa IFO 12689): 1.56 µg/mL (≈ 4.24 µM); MIC (P. aeruginosa IID 1210): 6.25 µg/mL (≈ 17 µM); MIC (P. cepacia GIFU 518): 0.78 µg/mL (≈ 2.12 µM); MIC [9]: 1.56 µg/mL (≈ 4.24 µM); MIC [10]: 0.78 µg/mL (≈ 2.12 µM); MIC (B. fragilis 0558): 0.78 µg/mL (≈ 2.12 µM); MIC (B. distasonis 8503): 3.13 µg/mL (≈ 8.51 µM); MIC [11]: 1.56 µg/mL (≈ 4.24 µM); MIC (B. vulgatus KYA 29327): 1.56 µg/mL (≈ 4.24 µM); MIC (F. necrophorum S-45): 1.56 µg/mL (≈ 4.24 µM); MIC [12]: 1.56 µg/mL (≈ 4.24 µM); MIC (E. limosum KYA 8486): 6.25 µg/mL (≈ 17 µM); MIC [13]: 6.25 µg/mL; MIC (C. perfringens KYA 13123): 0.78 µg/mL (≈ 2.12 µM); MIC (C. ramosum): 6.25 µg/mL (≈ 17 µM); MIC [14]: 1.56 µg/mL (≈ 4.24 µM); MIC (Pst. micros UPI 5464-1): 0.78 µg/mL (≈ 2.12 µM); MIC [15]: 0.78 µg/mL (≈ 2.12 µM)

From patent US4753953A, “Pyridonecarboxylic acid derivatives and antibacterial pharmaceutical compositions thereof” (priority 1985, dated 1988)
